Experimental data reported in PMC12145446, “Development of an AI model for DILI-level prediction using liver organoid brightfield images” (Communications Biology, 2025).
Where “and” joins values, the source holds several entries; their conditions need not be identical. Equal values may be shown once. Entries after “also recorded” stand apart in the source; their conditions may differ.

Experiments:
[1] = cited from earlier work; for Label section / Severity class: DILIrank; for Label section: FDA drug label section; for DILIrank: FDA DILIrank category based on clinical data
[2] = peak serum concentration used as dosing reference; source not given; cited from earlier work
[3] = test system: human liver organoids (HLOs); experiment: ALB secretion (Human Albumin ELISA) in the DILI toxicity test on human liver organoids; type: cell-based; details: 10*Cmax; for ALB inhibition, significance vs 0*Cmax: liver organoids, Supplementary Fig. 1
Description: (§1) All experiments were performed using HLOs derived from a single donor tissue. For each assay, three technical replicates were analyzed, corresponding to three independently cultured wells seeded with organoids. For passage, the following embedding method was used: HLOs were enzymatically or mechanically fragmented (with pre-cold phosphate-buffered saline (PBS)) and reseeded in new Matrigel. Specifically, the pre-cold Matrigel/cell mixture is seeded in 24-well plates at 30 μL/well to enable the formation of dome-shaped structures. Incubation in the cell incubator (37 °C, 5% CO2) for 15 min is required for Matrigel polymerization. After solidification, 500 μL of specific medium is added and later renewed at specific intervals.
(§2) The peak serum concentration (Cmax) can intuitively reflect the actual presence level of a drug in the body’s circulatory system. […] On this basis, we selected 10*Cmax as the reference concentration, taking into account the coefficient of variation in toxicology (individual variability: tenfold). […] Each drug was tested in triplicate. Plates were dosed with the drug for 72 h in each cycle (referred to as Day 0 through Day 3). […] At the end of day 3, the supernatant from each well was collected to determine ALB secretion, and the spheroids from each well were used for the cell viability assay.
The culture supernatants were collected and stored at −80 °C until use. The supernatant was assayed with a Human Albumin ELISA Kit (PROTEINTECH, KE00076). Assays were performed according to the manufacturer’s instructions.

[4] = test system: human liver organoids (HLOs); experiment: Cellular viability (ATP, CellTiter-Glo) in the DILI toxicity test on human liver organoids; type: cell-based; details: 10*Cmax; for ATP inhibition, significance vs 0*Cmax: liver organoids, Supplementary Fig. 2, peer review file
Description: as §1, §2
CellTiter-Glo (CTG, G9681, PROMEGA) reagent and culture medium were added to each well in a 1:1 ratio. The contents were mixed for 2 min to induce cell lysis. The plate was incubated at room temperature for 10 min to stabilize the luminescent signal. Recording of luminescence was carried out with BioTek Microplate Reader Synergy H1 (Vermont, USA).

[5] = test system: human liver organoids (HLOs); experiment: Brightfield morphology of dosed human liver organoids; type: cell-based; details: 10*Cmax
From the text: To explore the suitability of liver models with varying levels of complexity for DILI toxicity testing platforms, we established a single-type cell 3D model (HepG2 spheroid) and a multi-type cell 3D model (liver organoid). Specifically, HepG2 spheroids and HLOs were each exposed to 30 compounds with or without hepatotoxicity. The levels of ALB from the supernatant and cellular activity (ATP) from the spheres were further assessed at the end of Day 3 to validate the reliability of the system (Figs. 2b, d, f and 3b, d, f). […] The brightfield images across different time series and different z-axis orientations were collected daily to generate image data for morphological analysis (Supplementary Figs. 5 and 6).
as §2

| SMILES | Label section [1] | Severity class [1] | DILIrank [1] | Cmax [2] [ng/mL] | other results |
| --- | --- | --- | --- | --- | --- |
| COc1ccccc1Oc1c(NS(=O)(=O)c2ccc(C(C)(C)C)cc2)nc(-c2ncccn2)nc1OCCO [Bosentan] | Box warning | 7 | vMost-DILI-Concern | 2286 |  |
| CC(=O)Nc1ccc(O)cc1 [Acetaminophen] | Warnings and precautions |  |  |  |  |
| CCN(CC)C(=O)/C(C#N)=C/c1cc(O)c(O)c([N+](=O)[O-])c1 [Entacapone] | No match | 0 | vLess-DILI-Concern | 1000 |  |
| CCc1ccc(CCOc2ccc(CC3SC(=O)NC3=O)cc2)nc1 (stereo not shown) [Pioglitazone] | Warnings and precautions | 3 | vLess-DILI-Concern | 1050 |  |
| CC(c1cc2ccccc2s1)N(O)C(N)=O (stereo not shown) [Zileuton] | Warnings and precautions | 5 | vMost-DILI-Concern | 3100 |  |
| O=C(O)Cc1ccccc1Nc1c(Cl)cccc1Cl [Diclofenac] | Warnings and precautions | 8 | vMost-DILI-Concern |  |  |
| NNC(=O)c1ccncc1 [Isoniazid] | Box warning | 8 | vMost-DILI-Concern | 10500 | ALB inhibition, significance vs 0*Cmax [3]: did not show a significant difference; ATP inhibition, significance vs 0*Cmax [4]: did not show a significant difference |
| Cc1nc(Nc2ncc(C(=O)Nc3c(C)cccc3Cl)s2)cc(N2CCN(CCO)CC2)n1 [Dasatinib] | Adverse reactions | 4 | vLess-DILI-Concern | 129 |  |
| CCc1oc2ccccc2c1C(=O)c1cc(Br)c(O)c(Br)c1 [Benzbromarone] | Withdrawn | 8 | vMost-DILI-Concern | 1840 |  |
| CCN(CC)CC(=O)Nc1c(C)cccc1C [Lidocaine] | No match | 0 |  |  |  |
| CS(=O)(=O)Nc1ccc([N+](=O)[O-])cc1Oc1ccccc1 [Nimesulide] | Withdrawn | 8 | vMost-DILI-Concern | 6500 |  |
| CC(=O)O[C@H]1C(=O)[C@@]2(C)[C@H]([C@H](OC(=O)c3ccccc3)[C@]3(O)C[C@H](OC(=O)[C@H](O)[C@@H](NC(=O)c4ccccc4)c4ccccc4)C(C)=C1C3(C)C)[C@]1(OC(C)=O)CO[C@@H]1C[C@@H]2O [Paclitaxel] | Adverse reactions | 4 | vLess-DILI-Concern | 600 |  |
| CC[C@]1(O)C[C@@H]2CN(CCc3c([nH]c4ccccc34)[C@@](C(=O)OC)(c3cc4c(cc3OC)N(C)[C@H]3[C@@](O)(C(=O)OC)[C@H](OC(C)=O)[C@]5(CC)C=CCN6CC[C@]43[C@@H]65)C2)C1 [Vinblastine] |  |  |  | 28 | ALB inhibition, significance vs 0*Cmax [3]: significant; ATP inhibition, significance vs 0*Cmax [4]: significant |
| CN(C)CCOC(c1ccccc1)c1ccccc1 [Diphenhydramine] | No match | 0 |  |  |  |
| O=C1CC2(CCCC2)CC(=O)N1CCCCN1CCN(c2ncccn2)CC1 [Buspirone] | Adverse reactions | 3 | Ambiguous DILI-concern | 1.92 |  |
| C#Cc1cccc(Nc2ncnc3cc(OCCOC)c(OCCOC)cc23)c1 [Erlotinib] | Warnings and precautions | 8 | vMost-DILI-Concern | 1200 |  |
| Cc1ccc(C(=O)c2cc(O)c(O)c([N+](=O)[O-])c2)cc1 [Tolcapone] | Box warning (withdrawn) | 8 | vMost-DILI-Concern | 13000 |  |
| C[C@H]1O[C@@H](O[C@H]2[C@@H](O)C[C@H](O[C@H]3[C@@H](O)C[C@H](O[C@H]4CC[C@@]5(C)[C@H](CC[C@@H]6[C@@H]5C[C@@H](O)[C@]5(C)[C@@H](C7=CC(=O)OC7)CC[C@]65O)C4)O[C@@H]3C)O[C@@H]2C)C[C@H](O)[C@@H]1O [Digoxin] |  |  |  | 2.21 | ALB inhibition, significance vs 0*Cmax [3]: significant; ATP inhibition, significance vs 0*Cmax [4]: significant |
| CC(C)C(=O)Nc1ccc([N+](=O)[O-])c(C(F)(F)F)c1 [Flutamine] | Box warning | 8 | vMost-DILI-Concern | 100 |  |
| CCc1nn(CCCN2CCN(c3cccc(Cl)c3)CC2)c(=O)n1CCOc1ccccc1 [Nefazodone] | Box warning | 8 | vMost-DILI-Concern | 434.9 |  |
| CN(Cc1cnc2nc(N)nc(N)c2n1)c1ccc(C(=O)N[C@@H](CCC(=O)O)C(=O)O)cc1 [Methotrexate] | Box warning | 3 | vMost-DILI-Concern | 351 |  |
| COc1cc2ncnc(Nc3ccc(F)c(Cl)c3)c2cc1OCCCN1CCOCC1 [Gefitinib] |  |  |  | 200 | Brightfield morphology changes of HLOs ([5]; Day 0 to Day 3): underwent cell death, failed to maintain their original spherical structure, and disintegrated by the end of Day 3; also recorded: started to undergo significant cell death and structural disintegration |
| CN(C)CCC(c1ccc(Cl)cc1)c1ccccn1 (stereo not shown) [Chlorpheniramine] | No match | 0 | vNo-DILI-Concern | 140 | ALB inhibition ([3]; human liver organoids, end of Day 3 (72 h), individual replicates n = 3, unit from Fig. S1 legend, listed as Chlorphenamine): 1% and 9%; ATP inhibition ([4]; human liver organoids, end of Day 3 (72 h), individual replicates n = 3, listed as Chlorphenamine): 13% and 9% and -14%; Brightfield morphology changes of HLOs ([5]; Day 0 to Day 3): still increased in diameter and developed into a typical translucent hollow sphere with clear boundaries; Brightfield morphology changes of HLOs ([5]; Day 0 to Day 3, listed as Chlorphenamine): still grew significantly; DILI level label by DILIrank ([1]; label as worded in text and figure legends): No-DILI |
| Cc1c(C)c2c(c(C)c1O)CCC(C)(COc1ccc(CC3SC(=O)NC3=O)cc1)O2 (stereo not shown) [Troglitazone] | Withdrawn | 8 | vMost-DILI-Concern | 2820 |  |
| Cc1cn([C@H]2C=C[C@@H](CO)O2)c(=O)[nH]c1=O [Stavudine] | Box warning | 8 | vMost-DILI-Concern | 776.4 |  |
| C[C@H]1COc2c(N3CCN(C)CC3)c(F)cc3c(=O)c(C(=O)O)cn1c23 [Levofloxacin] |  |  | vMost-DILI-Concern | 5700 |  |
